The record followed here is US11958871B2, “Inhibitors of bacterial glutaminyl cyclases for use in the treatment of periodontal and related diseases” (FRAUNHOFER-GESELLSCHAFT ZUR FÖRDERUNG DER ANGEWANDTEN …, priority 2018, dated 2024).

Where two headings read alike, the source gives them in different places.

Assay type in all cases: biochemical
Experiment [1] has as its target PgQC (Porphyromonas gingivalis, UniProt Q7MT37). Kind of experiment: Inhibitor assay for bacterial glutaminyl cyclase activity (fluorometric, H-Gln-AMC), PgQC. The procedure: (§1) QC activity was evaluated using H-Gln-AMC as the substrate (as previously described in Schilling et al., 2002).
(§2) The assay consists of varying concentration of the fluorogenic substrate and 0.5 U pyroglutaminyl aminopeptidase in 50 mM Tris-HCl, 50 mM NaCl at pH 8.0. After 10 minute incubation time at 30° C. reaction was initiated by addition of bacQC to a final volume of 125 μl reaction mixture. The excitation/emission wavelength was 380/460 nm. bacQC activity was determined from a standard curve of the fluorophore AMC under assay conditions. All determinations were carried out in 96 well microtiter plates (Fisher Scientific) at 30° C. using the FluoStar Optima (BMG Labtech).
(§3) For inhibitor testing, the sample composition was the same as described above, except for the addition of the putative inhibitory compound. […] Inhibitory constants were determined using different concentration of H-Gln-AMC varying from ¼ Km-2 Km. Final concentration of bacterial QC was in a range between 25 nM-50 nM.
(∘) represents reaction without inhibitor. Determinations were carried out in 50 mM Tris-HCl, 50 mM NaCl pH 8.0 and 1% (v/v) DMSO at 30° C.
(§4) The following compounds were synthesized as described in the Description of synthetic methods below. Average Ki values for the inhibition of PgQC (isolated and purified as described above), TfQC, PiQC and hQC were measured using the above inhibitor assay and are shown in. Ki refers to the average Ki values measured as described above, and Std(Ki) refers to the standard deviation of Ki.

The target of experiment [2] is hQC (Homo sapiens (Human), UniProt Q16769). Briefly: Inhibitor assay for glutaminyl cyclase activity (fluorometric, H-Gln-AMC), hQC. As for the experimental part: as §1, §2, §3, §4
Sequence of hQC (Q16769 29-361): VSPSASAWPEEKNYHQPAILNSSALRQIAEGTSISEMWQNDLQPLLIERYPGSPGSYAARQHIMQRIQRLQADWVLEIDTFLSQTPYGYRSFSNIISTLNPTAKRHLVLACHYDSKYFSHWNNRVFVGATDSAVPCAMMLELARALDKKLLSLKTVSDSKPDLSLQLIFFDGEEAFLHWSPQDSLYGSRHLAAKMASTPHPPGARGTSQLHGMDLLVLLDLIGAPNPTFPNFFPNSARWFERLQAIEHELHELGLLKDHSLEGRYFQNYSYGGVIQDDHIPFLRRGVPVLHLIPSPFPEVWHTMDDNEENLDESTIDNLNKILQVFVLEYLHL
Experiment [3] addresses TfQC (Tannerella forsythia, UniProt G8UMP8). Briefly: Inhibitor assay for bacterial glutaminyl cyclase activity (fluorometric, H-Gln-AMC), TfQC. As for the experimental part:
as §1, §2, §3, §4

For experiment [4], the system named is bacterial glutaminyl cyclases. Kind of experiment: Inhibition of bacterial glutaminyl cyclases, summary statements. As for the experimental part:
as §3, §4

[5] abbreviates: average Ki ± Std(Ki), read-out: PgQC Ki.
The mark [6] stands for this setting: average Ki ± Std(Ki), read-out: hQC Ki.
Where [7] appears, read: average Ki ± Std(Ki), read-out: TfQC Ki.

Sequence of TfQC (G8UMP8 20-333 limits assumed): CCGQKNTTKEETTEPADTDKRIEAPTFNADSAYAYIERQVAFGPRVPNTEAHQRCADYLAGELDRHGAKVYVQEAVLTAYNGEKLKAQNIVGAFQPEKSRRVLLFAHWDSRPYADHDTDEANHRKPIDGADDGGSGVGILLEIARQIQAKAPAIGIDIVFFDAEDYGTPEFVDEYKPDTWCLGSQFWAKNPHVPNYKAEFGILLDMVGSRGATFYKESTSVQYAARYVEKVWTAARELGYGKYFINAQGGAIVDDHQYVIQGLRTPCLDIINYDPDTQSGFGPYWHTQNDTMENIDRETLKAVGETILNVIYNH
Sequence of PgQC (Q7MT37 22-333 limits assumed): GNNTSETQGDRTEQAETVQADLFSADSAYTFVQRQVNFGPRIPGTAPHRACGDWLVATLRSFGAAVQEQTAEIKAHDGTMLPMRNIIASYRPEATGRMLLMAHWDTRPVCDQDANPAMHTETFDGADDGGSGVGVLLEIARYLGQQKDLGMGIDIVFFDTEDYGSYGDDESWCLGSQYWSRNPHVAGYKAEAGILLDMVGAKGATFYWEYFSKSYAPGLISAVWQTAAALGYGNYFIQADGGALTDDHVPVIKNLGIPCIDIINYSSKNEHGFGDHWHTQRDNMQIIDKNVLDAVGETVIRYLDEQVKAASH

Broadly, the Ki is the dissociation constant of the complex between target and ligand, obtained from inhibition or displacement. Take `c1nc2cc(NCc3ccc(OCCN4CCOCC4)cc3)cnc2[nH]1` [Example 26, N-[[4-(2-Morpholinoethoxy)phenyl]methyl]-3H-imidazo[4,5-b]pyridin-6-amine]: the Ki in experiment [1] (setting [5]) was determined as 33 ± 1 nM.
As for `c1ccc(Oc2cccc(CNc3cnc4[nH]cnc4c3)c2)cc1` [Example 19, N-[(3-Phenoxyphenyl)methyl]-3H-imidazo[4,5-b]pyridin-6-amine], the inhibition constant (Ki) in experiment [1] (setting [5]) came out at 15 ± 0.1 nM.
In the case of `c1ccc(-c2ccc(CNc3cnc4[nH]cnc4c3)cc2)nc1` [Example 25, N-[[4-(2-Pyridyl)phenyl]methyl]-3H-imidazo[4,5-b]pyridin-6-amine], the Ki in experiment [1] (setting [5]) amounted to 38 ± 3 nM.
In the case of `N=C(N)NCCOc1ccc(CNc2cnc3[nH]cnc3c2)cc1` [Example 17, 1-(2-(4-((Imidazo[4,5-b]pyridin-6-ylamino)methyl)-phenoxy)ethyl)guanidine], the Ki was 455 ± 14 nM in experiment [2] (setting [6]), 123 ± 16 nM in experiment [3] (setting [7]) and 14 ± 0.1 nM in experiment [1] (setting [5]).
Turning to `O=C(c1cc(Cl)cc(Cl)c1)N1CCc2[nH]cnc2C1` [MWT-S-00431, (3,5-dichlorophenyl-1,4,6,7-tetrahydro-5H-imidazo[4,5-c]pyridin-5-yl)methanone, reference compound], the Ki in experiment [1] (50 mM Tris-HCl, 50 mM NaCl pH 8.0, 1% (v/v) DMSO, 30° C., read-out: Ki, inhibition of the conversion of H-Gln-AMC by PgQC) was determined as 104 nM.
For the compound `FC1(F)Oc2ccc(CNc3cnc4[nH]cnc4c3)cc2O1` [Example 24, N-[(2,2-Difluoro-1,3-benzodioxol-5-yl)methyl]-3H-imidazo-[4,5-b]pyridin-6-amine], the inhibition constant Ki in experiment [1] (setting [5]) amounted to 67 ± 1 nM.
On to `c1nc2cc(NCc3ccc(N4CCOCC4)cc3)cnc2[nH]1` [Example 27, N-[(4-morpholinophenyl)methyl]-3H-imidazo[4,5-b]pyridin-6-amine], for which the Ki in experiment [1] (setting [5]) stood at 60 ± 2 nM.
Turning to `COc1cc(CNc2cnc3[nH]cnc3c2)cc2c1OCO2` [Example 23, N-[(7-Methoxy-1,3-benzodioxol-5-yl)methyl]-3H-imidazo-[4,5-b]pyridin-6-amine], the Ki in experiment [1] (setting [5]) is 65 ± 13 nM.
On to `CC(C)Oc1ccc(CNc2cnc3[nH]cnc3c2)cc1` [Example 18, N-[(4-Isopropoxyphenyl)methyl]-3H-imidazo[4,5-b]pyridin-6-amine], for which, in experiment [1] (setting [5]), the inhibitory constant (Ki) came out at 86 ± 5 nM.
With `c1ccc(-c2ccc(CNc3cnc4[nH]cnc4c3)cc2)cc1` [Example 21, N-[(4-Biphenyl)methyl]-3H-imidazo[4,5-b]pyridin-6-amine], in experiment [1] (setting [5]), the inhibition constant (Ki) came out at 19 ± 1 nM.
In the case of `COc1cc(F)c(CNc2cnc3[nH]cnc3c2)c(F)c1` [Example 22, N-[(2,6-Difluoro-4-methoxy-phenyl)methyl]-3H-imidazo[4,5-b]pyridin-6-amine], the inhibition constant Ki in experiment [1] (setting [5]) was 30 ± 1 nM.
In the case of `c1ccc(CNc2ccc3nc[nH]c3n2)cc1` [Example 1, N-Benzylimidazo[4,5-b]pyridin-5-amine], the Ki in experiment [2] (setting [6]) is 8800 ± 127 nM; in experiment [2] (read-out: Ki, hQC (Table 5)), 8800 nM; in experiment [3] (setting [7]) it was 8260 ± 361 nM; in experiment [3] (read-out: Ki, TfQC (Table 5)), 8300 nM; in experiment [1] (setting [5]), 1940 ± 318 nM; in experiment [1] (read-out: Ki, PgQC (Table 5)), 1950 nM. The “inhibitory activity against bacterial glutaminyl cyclases (in words)” value in experiment [4] is “significant bacQC inhibitory activity and selectivity for PgQC over hQC”.
For `c1ccc(COc2ccc(CNc3cnc4[nH]cnc4c3)cc2)cc1` [Example 20, N-[(4-Benzyloxyphenyl)methyl]-3H-imidazo[4,5-b]pyridin-6-amine], the Ki in experiment [1] (setting [5]) is 42 ± 4 nM.
